Patent publication US4994485A, “Thio compounds having fungicidal activity” (Duphar International Research B.V., priority 1986, dated 1991)

How the values were obtained:
Type in all cases: cell-based
Fusarium culmorum = test: In vitro test on activity against Fusarium culmorum; conditions: read-out: growth inhibition of the fungus
Pythium splendens = test: In vitro test on activity against Pythium splendens; conditions: Globisporangium splendens, read-out: growth inhibition of the fungus
Leptosphaeria nodorum = test: In vitro test on activity against Leptosphaeria nodorum; conditions: Parastagonospora nodorum, read-out: growth inhibition of the fungus
Description: The compound to be tested is processed in a culture medium consisting of 1% by weight of glucose, 0.2% by weight of a yeast extract (marmite), 0.5% by weight of a protein (pepton), 2.5% by weight of agar-agar, and 95.8% by weight of water, in petri dishes in concentrations of 3 and 10 ppm. The petri dishes are inoculated with the plant-pathogenic fungus Pyrenophora graminea and then kept at a temperature of 20° C. After 48 hours the growth-inhibiting activity of the compounds is determined visually. For comparison, the known substance (b) (see EXAMPLE XV) is also tested.
Compounds according to the invention are tested on i Leptosphaeria nodorum in the same manner as described in EXAMPLE XIX.

SMILES	inhibition at 30 ppm (Fusarium culmorum)	inhibition at 10 ppm (Pythium splendens)	inhibition at 30 ppm (Leptosphaeria nodorum)
C[S+]([O-])c1sc2cccc(Cl)c2c1C#N (centres unmarked) [(11), 2-methylsulphinyl-3-cyano-4-chloro-benzothiophene]	≥ 75%	–	–
CCS(=O)(=O)c1sc(C#N)cc1C#N [(16), 2-ethylsulphonyl-3,5-dicyanothiophene]	–	≥ 95%	–
CC[S+]([O-])c1sc(C(C)=O)c(NC)c1C#N (centres unmarked) [(17), 2-ethylsulphinyl-3-cyano-4-N-methylamino-5-acetylthiophene]	–	≥ 95%	≥ 85%
CCS(=O)(=O)c1sc(C(C)=O)c(Cl)c1C#N [(18), 2-ethylsulphonyl-3-cyano-4-chloro-5-acetylthiophene]	–	≥ 95%	–
CC[S+]([O-])c1sc2cc(Cl)ccc2c1C#N (centres unmarked) [(20), 2-ethylsulphinyl-3-cyano 6-chloro-benzothiophene]	–	–	≥ 85%
CCS(=O)(=O)c1sc(C(C)=O)cc1C#N [(21), 2-ethylsulphonyl-3-cyano-5-acetylthiophene]	–	≥ 95%	–
CCS(=O)(=O)c1sc(C#N)c(Cl)c1C#N [(22), 2-ethylsulphonyl-3,5 dicyano-4-chlorothiophene]	≥ 75%	≥ 95%	–
CC[S+]([O-])c1sc(C(C)=O)c(OC)c1C#N (centres unmarked) [(23), 2-ethylsulphinyl-3-cyano-4-methoxy-5-acetylthiophene]	≥ 75%	–	≥ 85%
COc1c(C(C)=O)sc([S+](C)[O-])c1C#N (centres unmarked) [(25), 2-methylsulphinyl-3-cyano-4-methoxy-5-acetylthiophene]	–	≥ 95%	–
C[S+]([O-])c1sc(C=O)c(-c2ccc(Cl)cc2)c1C#N (centres unmarked) [(26), 2-methylsulphinyl-3-cyano-4-(4-chlorophenyl)-5-formylthiophene]	–	≥ 95%	–
C[S+]([O-])c1sc(C=O)cc1C#N (centres unmarked) [(28), 2-methylsulphinyl-3-cyano-5-formylthiophene]	–	≥ 95%	–
CCOC(=O)c1sc([S+](C)[O-])c(C#N)c1N (centres unmarked) [(29), 2-methylsulphinyl-3-cyano-4-amino-5-ethoxycarbonylthiophene]	≥ 75%	–	–
C[S+]([O-])c1sc(C(=O)c2ccccc2)cc1C#N (centres unmarked) [(30)]	–	≥ 95%	–
N#Cc1cc(C#N)c([S+]([O-])c2ccccc2)s1 (centres unmarked) [(32), 2-phenylsulphinyl-3,5-dicyanothiophene]	≥ 75%	≥ 95%	≥ 85%
CCOC(=O)c1sc([S+]([O-])CC)c(C#N)c1Cl (centres unmarked) [(37), 2-ethylsulphinyl 3-cyano-4-chloro-5-ethoxycarbonylthiophene]	≥ 75%	–	≥ 85%
CCCCCC[S+]([O-])c1sc(C#N)c(N)c1C#N (centres unmarked) [(38), 2-n-hexylsulphinyl-3,5-dicyano-4-aminothiophene]	≥ 75%	–	–
CCC[S+]([O-])c1sc(C#N)cc1C#N (centres unmarked) [(40), 2-n-propylsulphinyl 3,5-dicyanothiophene]	≥ 75%	≥ 95%	≥ 85%
CCCC[S+]([O-])c1sc(C#N)c(OC)c1C#N (centres unmarked) [(41), 2-n-butylsulphinyl-3,5-dicyano 4-methoxythiophene]	≥ 75%	≥ 95%	≥ 85%
CCCC[S+]([O-])c1sc(C(C)=O)cc1C#N (centres unmarked) [(44), 2-n-butylsulphinyl-3-cyano-5-acetylthiophene]	≥ 75%	–	≥ 85%
CC[S+]([O-])c1sc(C#N)c(N)c1C#N (centres unmarked) [(46), 2-ethylsulphinyl-3,5-dicyano-4-aminothiophene]	–	≥ 95%	–
C[S+]([O-])c1sc(C=O)c(N)c1C#N (centres unmarked) [(48), 2-methylsulphinyl-3-cyano-4-amino-5-formylthiophene]	–	≥ 95%	–
CC[S+]([O-])c1sc(C=O)c(N)c1C#N (centres unmarked) [(49), 2-ethylsulphinyl-3-cyano-4-amino-5-formylthiophene]	–	≥ 95%	–
CC[S+]([O-])c1sc(C=O)c(Cl)c1C#N (centres unmarked) [(50), 2-ethylsulphinyl-3-cyano-4-chloro-5-formylthiophene]	–	≥ 95%	–
CC[S+]([O-])c1sc(C#N)c(N(C)C(C)=O)c1C#N (centres unmarked) [(54), 2-ethylsulphinyl-3,5-dicyano-4-(N-acetyl-N-methylamino)thiophene]	–	≥ 95%	–
CCC[S+]([O-])c1sc(C#N)c(OC)c1C#N (centres unmarked) [(55), 2-n-propylsulphinyl-3,5-dicyano-4-methoxythiophene]	≥ 75%	≥ 95%	–
CC[S+]([O-])c1sc(C=O)c(C)c1C#N (centres unmarked) [(56), 2-ethylsulphinyl-3-cyano-4-methyl-5-formylthiophene]	–	≥ 95%	–

SMILES	inhibition at 30 ppm (Fusarium culmorum)	inhibition at 10 ppm (Pythium splendens)	inhibition at 30 ppm (Leptosphaeria nodorum)
CCC[S+]([O-])c1sc(C(C)=O)c(N)c1C#N (centres unmarked) [(57), 2-n-propylsulphinyl-3-cyano-4-amino-5-acetylthiophene]	≥ 75%	≥ 95%	–
CC(=O)COc1c(C(C)=O)sc([S+](C)[O-])c1C#N (centres unmarked) [(59), 2-methylsulphinyl-3-cyano-4-acetylmethoxy-5-acetylthiophene]	–	≥ 95%	–
C[S+]([O-])c1sc(S(C)(=O)=O)cc1C#N (centres unmarked) [(60), 2-methylsulphinyl-3-cyano-5-methylsulphonylthiophene]	–	≥ 95%	–
CCC[S+]([O-])c1sc(C(C)=O)c(Cl)c1C#N (centres unmarked) [(61), 2-n-propylsulphinyl-3-cyano-4-cloro-5-acetylthiophene]	≥ 75%	≥ 95%	–
CCC[S+]([O-])c1sc(C(C)=O)c(C)c1C#N (centres unmarked) [(62), 2-n-propylsulphinyl-3-cyano-4-methyl-5-acetylthiophene]	≥ 75%	–	–
CC[S+]([O-])c1sc(C#N)c(C)c1C#N (centres unmarked) [(63), 2-ethylsulphinyl-3,5-dicyano-4-methylthiophene]	–	–	≥ 85%
CC[S+]([O-])c1sc(C(=O)c2ccccc2)cc1C#N (centres unmarked) [(64), 2-ethylsulphinyl-3-cyano-5-benzoylthiophene]	≥ 75%	–	≥ 85%
CC[S+]([O-])c1sc(C(=O)c2ccccc2)c(N)c1C#N (centres unmarked) [(65), 2-ethylsulphinyl-3-cyano-4-amino-5-benzoylthiophene]	≥ 75%	–	≥ 85%
CC[S+]([O-])c1sc(C#N)c(-n2cncn2)c1C#N (centres unmarked) [(68), 2-ethylsulphinyl-3,5-dicyano-4-(1,2,4-triazol-1-yl)thiophene]	–	≥ 95%	–
CC[S+]([O-])c1sc(C#N)c(-n2ccnc2)c1C#N (centres unmarked) [(69), 2-ethylsulphinyl-3,5-dicyano-4-(imidazol-1-yl)thiophene]	–	≥ 95%	–
C[S+]([O-])c1sc(C=O)cc1C=O (centres unmarked) [(70), 2-methylsulphinyl-3,5-diformylthiophene]	–	≥ 95%	–
CC[S+]([O-])c1sc(C#N)c(-c2ccccc2)c1C#N (centres unmarked) [(71), 2-ethylsulphinyl-3,5-dicyano-4-phenylthiophene]	≥ 75%	–	≥ 85%
CCC[S+]([O-])c1sc(C(=O)c2ccc(Cl)cc2)cc1C#N (centres unmarked) [(73), 2-n-propylsulphinyl-3-cyano-5-(4-chlorobenzolyl)thiophene]	≥ 75%	–	≥ 85%
CCC[S+]([O-])c1sc(C(=O)c2ccccc2)c(OC)c1C#N (centres unmarked) [(75), 2-n-propylsulphinyl-3-cyano-4-methoxy-5-benzoylthiophene]	≥ 75%	–	≥ 85%
CC[S+]([O-])c1sc(C(=O)c2ccc(Cl)cc2)c(OC)c1C#N (centres unmarked) [(76), 2-ethylsulphinyl-3-cyano-4-methoxy-5-(4-chlorobenzoyl)thiophene]	–	–	≥ 85%
CC[S+]([O-])c1sc(S(C)(=O)=O)c(Cl)c1C#N (centres unmarked) [(77), 2-ethylsulphinyl-3-cyano-4-chloro-5-methylsulphonyl-thiophene]	–	≥ 95%	–
CCCCCCCC[S+]([O-])c1sc(C#N)cc1C#N (centres unmarked) [(81), 2-n-octylsulphinyl-3,5-dicyanothiophene]	≥ 75%	–	–
CC[S+]([O-])c1sc(C=O)c(Cl)c1C=O (centres unmarked) [(83), 2-ethylsulphinyl-3,5-diformyl-4-chlorothiophene]	–	≥ 95%	–
CCS(=O)(=O)c1sc(S(C)(=O)=O)c(Cl)c1C#N [(84), 2-ethylsulphonyl-3-cyano-4-chloro-5-methylsulphonylthiophene]	–	≥ 95%	–
CC[S+]([O-])c1sc(C(C)=O)c(-c2ccccc2)c1C#N (centres unmarked) [(87), 2-ethylsulphinyl-3-cyano-4-phenyl-5-acetylthiophene]	≥ 75%	–	≥ 85%
CCCC[S+]([O-])c1sc(C(=O)c2ccccc2)c(N)c1C#N (centres unmarked) [(88), 2-n-butylsulphinyl-3-cyano-4-amino-5-benzoylthiophene]	≥ 75%	–	≥ 85%
CCCC[S+]([O-])c1sc(C(=O)c2ccccc2)cc1C#N (centres unmarked) [(90), 2-n-butylsulphinyl 3-cyano-5-benzoylthiophene]	≥ 75%	–	–
CC[S+]([O-])c1sc(C(=O)c2ccccc2)c(C)c1C#N (centres unmarked) [(91), 2-ethylsulphinyl-3-cyano-4-methyl-5-benzoylthiophene]	≥ 75%	–	–
CC[S+]([O-])c1sc(C(=O)c2ccccc2)c(Cl)c1C#N (centres unmarked) [(92), 2-ethylsulphinyl-3-cyano-4-chloro-5-benzoylthiophene]	≥ 75%	–	≥ 85%
CS/C(=C(\C#N)c1ccccc1)[S+](C)[O-] (stereo not drawn) [(93), α-cyano-β-methylsulphinyl)-β-methylthio-styrene, E-isomer]	≥ 75%	≥ 95%	–
